Reference: article PMC10021052, “Novel multivalent S100A8 inhibitory peptides attenuate tumor progression and metastasis by inhibiting the TLR4-dependent pathway” (Cancer Gene Therapy, 2023)
Entries after “also recorded” stand apart in the source; their conditions may differ.

What was measured:
[1] = test system: tumor cells and macrophages; experiment: Cytokine/chemokine induction in tumor cells and macrophages; type: cell-based; conditions: possible mechanism scheme, Fig. 7I
SW480 cells [2] = experiment: ELISA, IL-8 and VEGF secretion of SW480 cells; type: cell-based, human; conditions: peptide pretreatment, S100A8 24 h, supernatant ELISA; *P < 0.05 vs S100A8
Procedure: S100A8 recombinant protein was purified as previously described. These proteins were immobilized on Maxisorp plates (Thermo Fisher Scientific, Waltham, MA, USA), followed by blocking with protein-free blocking buffer (Thermo Fisher Scientific). TLR4/MD-2 recombinant proteins with various concentrations of candidate peptides were then added to the indicated S100A8-immobilized ELISA plates for 2 h. The plates were washed, incubated with anti-TLR4 antibody, and HRP-conjugated secondary antibody, followed by the addition of substrate. The reaction was stopped by addition a 2N H2SO4 solution. Absorbance OD450/OD650 was measured using a microplate reader (Thermo Fisher Scientific). Maxisorp plates were also used for peptide coating. After blocking with protein-free blocking buffer, the coated plates were washed, and TLR4/MD-2 recombinant protein (2 µg/ml) was added to each well. The plates were incubated with a TLR4 antibody followed by horseradish peroxidase (HRP)-labeled anti-rabbit IgG. For detection of IL8 and VEGF in culture supernatants, SW480 cells were pretreated with the indicated peptides, and followed by stimulation with S100A8 for 24 h. The amount of interleukin-8 (IL-8) or VEGF in the supernatants were analyzed by ELISA kits (R&D Systems, Mineapolis, MN) according to the manufacturer’s instructions.

[3] = test system: subcutaneous SW480 tumors; experiment: Immunohistochemistry of subcutaneous SW480 tumors: proliferation and caspase-3; type: in vivo, Balb nu/nu mice; conditions: Supplementary Fig. 2
Procedure: To immunostain tumor vasculatures, the cryo sections (6 µm) obtained from frozen primary tumors, were incubated with anti-CD31 (BD Pharmingen, Cat No. 550274), and/or anti-α-SMA-Cy3 (Sigma-Aldrich, Cat No. C6198) followed by AlexaFlour 488-conjugated rat IgG secondary antibodies (Thermo Fisher Scientific) were used to visualize the signals by a confocal microscopy (LSM-710; Carl Zeiss). DAPI staining was used for nuclear staining. For immunohistochemistry, the paraffin-embedded sections were cut 4 µm thick and then deparaffinized, rehydrated and then treated for antigen retrieval. The sections were incubated with the indicated antibody overnight, followed by incubation with ImmPRESS HRP Reagent (Vector, Newark, CA). ImmPACT DAB (Vector) was used for visualization of the signals. The images were captured by BZ-X800 (Keyence, Osaka, Japan).

SW480 cells [4] = experiment: qPCR, S100A8-mediated IL-8 and VEGF mRNA induction in SW480 cells; type: cell-based, human; conditions: qPCR, normalized to β-actin
Balb nu/nu mice = experiment: Toxicity: biochemical, body weight and hematological tests; type: in vivo, mouse; conditions: Supplementary Table 1
Text: We then examined the effect of divalent peptide3A5 on tumor growth in vivo.

[5] = test system: SW480-transplanted xenograft; experiment: Tumor growth in SW480-transplanted xenograft model; type: in vivo, Balb nu/nu mice; conditions: every 3 days; for tumor growth, divalent peptide3A5 monotherapy: SW480 xenograft, various doses, n = 5–6 mice per group; for tumor growth, combination with 5-FU: divalent peptide3A5 5 mg/kg i.p. + 5-FU 20 mg/kg i.p.

Sequence: FQEFAILVIK [Divalent peptide3A5, divalent peptide of peptide3A5 using Fmoc-Lys (Fmoc)-OH to form two branches]
- induction of cytokines/chemokines [1]: suppress the induction of cytokines/chemokines in both tumor cells and macrophages
- S100A8-mediated IL-8 secretion (SW480 cells [2]): suppressed
- S100A8-mediated VEGF secretion (SW480 cells [2]): suppressed
- caspase-3 activation in SW480 tumors [3]: caused caspase-3 activation
- tumor cell proliferation in SW480 tumors [3]: suppressed tumor cell proliferation
- S100A8-mediated VEGF induction (mRNA) (SW480 cells [4]): efficiently inhibited
- S100A8-mediated IL-8 induction (mRNA) (SW480 cells [4]; *P < 0.05 vs S100A8): efficiently inhibited
- serum ALT (Balb nu/nu mice; 10 mg/kg): normal
- serum AST (Balb nu/nu mice; 10 mg/kg): normal
- serum LDH (Balb nu/nu mice; 10 mg/kg): normal
- body weight (Balb nu/nu mice): no significant difference
- hematological test (Balb nu/nu mice): no significant difference
- tumor growth, divalent peptide3A5 monotherapy [5]: inhibits tumor growth
- tumor growth, divalent peptide3A5 monotherapy ([5]; listed as divalent peptide3A5): suppressed tumor progression in a dose-dependent manner; also recorded: dose-dependently inhibited tumor growth; also recorded: inhibited tumor growth in vivo
- tumor growth, combination with 5-FU [5]: synergistically inhibits tumor growth with 5-FU combination
- tumor growth, combination with 5-FU ([5]; listed as divalent peptide3A5): synergistically suppressed tumor growth
- tumor growth, combination with bevacizumab ([5]; divalent peptide3A5 5 mg/kg i.p. + bevacizumab 4 mg/kg i.p.): synergistically suppressed tumor growth; also recorded: synergistically inhibited tumor growth with bevacizumab
